Where two headings read alike, the source gives them in different places.
Experiments:
Alga X [1] = test: Fatty acid content and fatty acid profile of Alga X cells grown in test media (GC/MS, FAME ionization detection); format: cell-based, Chrysochromulina sp.
Alga X [2] = tested on: Alga X
Description: The mother culture is generally about one week old and has a culture density of about 2×10̂6.
Two experiments were run using 0, 8, 16, 32, and 64 mM NaCl salt concentrations in the Alga X culture medium. Alga cells were collected for lipid analysis at 0, 3, 6, and 9 days for each salt concentration.
The starting culture densities were 5.00E+03 cells/ml.
The starting culture densities were 1.00E+05 cells/ml.
Alga X cell cultures were subjected to agitation between 0 and 100 rpm.
A volume of about 37.6 ml of original stock was added to each starting flask, with the balance being medium to bring the cell cultures to a concentration of about 1.00E+06.
The original stock culture was maintained in CORE1 (distilled water based medium), plus SEM, with a concentration of about 3.19E+06 cells/ml. Volumes of 34.5 ml of original stock were added to each starting flask, with the balance being medium to bring the cell cultures to a concentration of about 1.00E+05.
The experimental AMPSO culture was maintained in a medium of Clear (human waste water), SEM, and 8 mM AMPSO pH buffer. The AMPSO plus NaHCO3 culture was maintained in a medium of Clear (human waste water), SEM, 8 mM AMPSO pH buffer, and 2 mM NaHCO3.

[3] = tested on: lipid bodies in algal cells; test: BODIPY 505/515 vital staining of lipid bodies in live algal cells (fluorescence microscopy, cell sorter); format: cell-based, Alga X
Text: When added to a culture of algal cells, 1-10 micro-liters of BODIPY 505/515 stains intracellular lipid bodies within minutes. (Preparation of a BODIPY 505/515 stock solution is described below in EXAMPLE 30.) BODIPY 505/515 accumulates in lipidic compartments by a diffusion-trap mechanism. The dye has a high oil/water partition coefficient, which allows it to cross cell membranes and organelle membranes easily. When viewed under a fluorescent microscope, the background fluorescence of BODIPY 505/515 in the bath solution is slightly visible. Despite the slight background fluorescence, lipid bodies within live algal cells are intensely labeled and can be easily seen using fluorescein-type optics or confocal microscopy (see FIG. 8). […] This fluorescence arises from endogenous carotenoid and chlorophyll molecules located within the chloroplasts.
Fluorescently labeled cells with large lipid bodies can be isolated using the fluorescent cell sorter and used to successfully seed new algal cultures. Fluorescently labeled cells have a signal/noise ratio of 50-200 above background fluorescence, depending on the BODIPY 505/515 dye concentration used. […] BODIPY 505/515 can be used to characterize the diurnal rhythm of lipid body size within algal cells or decline in lipid quantity per cell as a culture moves from one life history phase to another. […]

[4] = tested on: Single-cell and filamentous species of algae; test: Algal growth in the continuous presence of the dye; format: cell-based; conditions: micromolar concentrations, for days (data not shown)

Q: With `O=P([O-])(O)O.[K+]` [KH2PO4] as the compound, how does the fatty acid productivity (Alga X [1]; increasing KH2PO4, by day 6) read?
A: Its fatty acid productivity is “increases slightly”.

Q: nitrogen was tested. Which lipid per cell (Alga X [1]; increased nitrogen in the media) did it give?
A: Its lipid per cell is “little affected”.

Q: With `O=C([O-])O.[Na+]` [sodium bicarbonate] as the compound, how does the cell culture growth (Alga X [2]; 2 mM, 4 mM or 6 mM, with AMPSO pH buffer) read?
A: Its cell culture growth is “further enhances cell culture growth”.

Q: With `CC(=O)O` [acetate] as the compound, how does the cells/mL (Alga X [2]; acetate 100 uM, day 0) read?
A: Its cells/mL is 1.0E+05 cells/mL.

Q: And the cells/mL (Alga X [2]; acetate 100 uM, day 3)?
A: Its cells/mL is 1.54E+06 cells/mL.

Q: And the cells/mL (Alga X [2]; acetate 100 uM, day 6)?
A: The cells/mL was 3.27E+06 cells/mL.

Q: What about the cells/mL (Alga X [2]; acetate 100 uM, day 9) of the same compound?
A: Its cells/mL is 4.87E+06 cells/mL.

Q: And the cells/mL (Alga X [2]; acetate 200 uM, day 0)?
A: Its cells/mL is 1.0E+05 cells/mL.

Q: What about the cells/mL (Alga X [2]; acetate 200 uM, day 3) of the same compound?
A: Its cells/mL is 1.69E+06 cells/mL.

Q: What about the cells/mL (Alga X [2]; acetate 200 uM, day 6) of the same compound?
A: The cells/mL was 4.02E+06 cells/mL.

Q: And the cells/mL (Alga X [2]; acetate 200 uM, day 9)?
A: The cells/mL was 5.02E+06 cells/mL.

Q: What about the cells/mL (Alga X [2]; acetate 400 uM, day 0) of the same compound?
A: The cells/mL was 1.0E+05 cells/mL.

Q: What about the cells/mL (Alga X [2]; acetate 400 uM, day 3) of the same compound?
A: The cells/mL was 1.67E+06 cells/mL.

Q: What about the cells/mL (Alga X [2]; acetate 400 uM, day 6) of the same compound?
A: The cells/mL was 4.44E+06 cells/mL.

Q: And the cells/mL (Alga X [2]; acetate 400 uM, day 9)?
A: Its cells/mL is 4.70E+06 cells/mL.

Q: With `CC1=CC(C)=[N+]2C1=Cc1c(C)cc(C)n1[B-]2(F)F` [BODIPY 505/515, 4,4-difluoro-1,3,5,7-tetramethyl-4-bora-3a,4a-diaza-s-indacene] as the compound, how does the “time after dye addition until fluorescently-labeled lipid bodies are visible” value ([3]; 1 micro-molar BODIPY 505/515, 0.05% DMSO) read?
A: The value was ≤ 5 min.

Q: What about the “signal/noise ratio of labeled cells above background fluorescence” value ([3]; depending on dye concentration) of the same compound?
A: Its value is 50-200.

Q: And the “growth of algae in continuous presence of the dye” value [4]?
A: The value was “continue to grow well”.

Q: With `[Cl-].[Na+]` [NaCl] as the compound, how does the “level of NaCl at which Alga X exhibits maximum growth” value (Alga X [2]) read?
A: Its value is 8.0 mM.

Q: And the “survival of Alga X cells” value (Alga X [2])?
A: The value was “did not survive”.

Q: What about the cell growth (Alga X [2]; 32 mM salt content) of the same compound?
A: Its cell growth is “depressed”.

Q: What does the source list for `O=P(O)(O)OC(CO)CO` [BGlycerolphosphate, beta-glycerophosphate]?
A: cells/mL (Alga X [2]; B-glycerolphosphate 6.45 uM (control amount), day 2): 6.98E+05 cells/mL; cells/mL (Alga X [2]; B-glycerolphosphate 6.45 uM (control amount), day 3): 1.57E+06 cells/mL; cells/mL (Alga X [2]; B-glycerolphosphate 6.45 uM (control amount), day 4): 2.75E+06 cells/mL; cells/mL (Alga X [2]; B-glycerolphosphate 6.45 uM (control amount), day 6): 3.54E+06 cells/mL; cells/mL (Alga X [2]; B-glycerolphosphate 6.45 uM (control amount), day 8): 4.10E+06 cells/mL; cells/mL (Alga X [2]; B-glycerolphosphate 6.45 uM (control amount), day 9): 4.53E+06 cells/mL

From US20110207820A1, “NOVEL CHRYSOCHROMULINA SPECIES, METHODS AND MEDIA THEREFOR, AND PRODUCTS DERIVED THEREFROM” (UNIVERSITY OF WASHINGTON, priority 2008, published 2011)
